Laboratory results taken from patent US4835161A, “Anti-histaminic compositions containing n-heterocyclyl-4-piperidinamines” (Janssen Pharmaceutica N.V., priority 1987, dated 1989).

Test system: compound 48/80-induced lethality
Assay: Protection of rats from compound 48/80-induced lethality
Assay type: in vivo, rat (male, inbred Wistar strain)
Details: Rattus norvegicus; subcutaneous or oral; 1 h before compound 48/80 0.5 mg/kg i.v.; survival after 4 h; dose protecting 50% of animals; read-out: compound 48/80 lethality test in rats-ED50
Method: Protection of rats from compound 48/80-induced lethality
The protection from compound 48/80-induced lethal circulatory collapse appears to be a simple way of evaluating quantitatively the antihistaminic activity of test compounds. Male rats of an inbred Wistar strain, weighing 240-260 g were used in the experiment. After overnight starvation the rats were transferred to conditioned laboratories (temp.=21±1° C., relative humidity=65±5%). The rats were treated subcutaneously or orally with a test compound or with the solvent (NaCl solution, 0.9%). One hour after treatment there was injected intravenously compound 48/80, freshly dissolved in water, at a dose of 0.5 mg/kg (0.2 ml/100 g of body weight). […] Survival after 4 hours is therefore considered to be a safe criterion of a protective effect of drug administration. Said ED50 -values are the values in mg/kg body weight at which the tested compounds protect 50% of the tested animals against compound 48/80-induced lethality.

Structure (SMILES)	ED50
Fc1ccc(Cn2c(NC3CCNCC3)nc3cccnc32)cc1 [compound 123]	0.08 mg/kg
Fc1ccc(Cn2c(NC3CCNCC3)nc3ncccc32)cc1 [compound 135]	0.01 mg/kg
c1coc(Cn2c(NC3CCNCC3)nc3cccnc32)c1 [compound 140, 3-(2-furanylmethyl)-N-(4-piperidinyl)-3H-imidazo[4,5-b]pyridin-2-amine]	0.08 mg/kg
Cc1ccc(Cn2c(NC3CCNCC3)nc3cccnc32)o1 [compound 166, 3-[(5-methyl-2-furanyl)methyl]-N-(4-piperidinyl)-3H-imidazo[4,5-b]pyridin-2-amine]	0.04 mg/kg
